Read-outs that look alike come from different tables or passages of the source. Blank lines part the entries; values can stand above or below the compound they belong to.
Assays:
[1] = cited from earlier work
mice = conditions: cited from earlier work
[2] = cited from earlier work; for metabolism and defluorination relative to the undeuterated compound: U.S. Patent 4,154,971, U.S. Patent 4,153,636
rat liver microsomes = assay type: in vitro ADME, male Sprague-Dawley rats; conditions: for defluorination by rat liver microsomes, nmol F^- /mg protein/30 min ± S.E.: 1 µl anesthetic per incubation, mean and standard error of triplicate determinations; for percent decline from sevoflurane values (degree of inhibited metabolism): following correction for background (0.43)
Description: The metabolism of D2-sevoflurane is expected to liberate one fluoride ion for each molecule metabolized by cytochrome P450 since the metabolism of sevoflurane liberates fluoride and hexafluoroisopropanol. To determine the metabolism of D2-sevoflurane relative to sevoflurane and enflurane, these anesthetics were incubated with hepatic microsomes from untreated male Sprague-Dawley rats (200-230g), or rats treated with isoniazid (80mg/kg, i.p. for 5 days), or phenobarbital (0.2% in the drinking water for 4 days). Isoniazid induces the cytochrome P450 isozyme P450 2E1 which is thought to metabolize the volatile anesthetics, and phenobarbital induces several forms also shown to play a role in anesthetic metabolism in the rat.
Each incubation vial (6 ml plastic vial) contained 3 ml of 5 mg/ml microsomal protein in a 0.1 M sodium phosphate buffer, pH 7.4. An NADPH generating system was added to cytochrome P450 activity, and the NADPH generating system was omitted from control incubations. […] Reactions were stopped by placing the vials on ice. Fluoride was assayed in the microsomal mixtures using fluoride ion-specific electrodes (Fisher Scientific) and a 720A Orion pH/ISE meter. Following incubation microsomes were mixed with an equal volume of TISABII buffer for fluoride analysis. Fluoride in each sample was determined from standard curves constructed using fluoride standards (10^-7 to 10^-3 M NaF) prepared from a commercially available standard solution (10^-1 M NaF).

[3] = In vivo metabolism: plasma fluoride after 30 minute inhalation exposure; design: species or system Male Sprague-Dawley rats; conditions: 30 minute exposure, 3% anesthetic
Source text: Untreated rats or rats treated with isoniazid or phenobarbital were exposed to D2-sevoflurane, sevoflurane, or enflurane to determine the relative rates of fluoride production in vivo.
(§1) The animals were exposed in a 3.8 L plastic exposure chamber with an atmosphere of 100% oxygen. Male Sprague-Dawley rats (200-220g, 4 per group) were placed in the chamber and the chamber was flushed with oxygen and sealed. Anesthetic was introduced into the chamber in liquid form via an injection port. Quantities were introduced to give initial concentrations of 3% anesthetic (enflurane, 464 µl; sevoflurane and D2-sevoflurane, 524 µl). The rats became anesthetized within 4-6 minutes after introduction of each anesthetic. Oxygen and carbon dioxide were monitored periodically during the exposure period with an Ohmeda 6000 multi-gas monitor.
Following a 30 minute exposure period, the chamber was flushed with 100% oxygen for 5 minutes and the animals rapidly awakened. The rats were immediately removed and injected i.p. with 80 mg/kg secobarbital. While anesthetized 3 to 4 ml of blood were withdrawn by cardiac puncture within 15 minutes of termination of anesthetic exposure (within 10 minutes of removal from the chamber). Plasma was prepared and fluoride analyzed as described above.

Male Sprague-Dawley rats = assay: Induction of anesthesia in exposure chamber at 3% anesthetic; assay type: in vivo; conditions: initial concentration 3% anesthetic in 100% oxygen, 3.8 L chamber
Description: as §1

[4] = Breakdown by soda lime in an anesthesia circuit (gas chromatography); assay type: physicochemical; conditions: for production of volatile degradation by-products: soda lime temperature maintained in the range of 4°C to 27°C
Description: An anesthesia circuit containing fresh soda lime (1.5 kg) was set up with an anesthesia machine (Foregger F 500). […] The gases were re-circulated at a total circuit flow rate of 1.5 liters per minute (a relatively low clinical total flow rate) in a closed system with a respirator. Carbon dioxide was added to the circuit at a constant rate of 200 ml per minute. This set up the conditions for "worst case" breakdown of sevoflurane by soda lime.
Experiments were conducted at exothermic temperature versus with the soda lime canister immersed in an ice bath. […] Products were continually detected for the remainder of the experiments (up to eight hours) by gas chromatography.

[5] = Incubations with soda lime in static systems; assay type: physicochemical; conditions: for degradation products with soda lime: static system
[6] = cited from earlier work; remark: listed apart in the source
[7] = Animal Treatment: Phenobarbital

Structure (SMILES): FC(F)OCC(F)(F)C(F)(F)F [CHF2OCH2CF2CF3]
anesthetic properties ([1]; in vivo): non-anesthetic up to its lethal concentration
convulsions (mice): produces convulsions

Structure (SMILES): [2H]C(Cl)(Br)C(F)(F)F (stereo not drawn) [Deuterated Halothane]
effect of deuteration on metabolism ([2]; Sipes et al., J. Pharmacol. Exp. Ther. 214: 716-720, 1980): inhibits its metabolism to trifluoroacetic acid, but not its metabolism to release fluoride

Structure (SMILES): [2H]C([2H])([2H])OC(F)(F)C(Cl)Cl [2,2-dichloro-1,1-difluoro-1-methoxy-D3-ethane]
metabolism and defluorination relative to the undeuterated compound [2]: decreased metabolism

Structure (SMILES): [2H]C(Cl)(Cl)C(F)(F)OC(F)F [1,1-difluoro-2-deutero-2,2-dichloroethyl difluoromethyl ether]
metabolism and defluorination relative to the undeuterated compound [2]: slower metabolism and thus slower defluorination

Structure (SMILES): FC(F)C(F)(F)COC(F)(F)F [trifluoromethyl-2,2,3,3-tetrafluoropropyl ether]
concentration causing violent convulsions and death (as low as) (mice): .5%

Structure (SMILES): [2H]C([2H])(F)OC(C(F)(F)F)C(F)(F)F [D2-sevoflurane, fluoro-dideutero-methyl-1,1,1,3,3,3,-hexafluoro-2-propyl ether]
defluorination by rat liver microsomes, nmol F^- /mg protein/30 min ± S.E. (rat liver microsomes; Animal Treatment: Isoniazid): 1.55 ± 0.39 nmol F^- /mg protein/30 min
defluorination by rat liver microsomes, nmol F^- /mg protein/30 min ± S.E. (rat liver microsomes; Animal Treatment: None): 0.62 ± 0.60 nmol F^- /mg protein/30 min
defluorination by rat liver microsomes, nmol F^- /mg protein/30 min ± S.E. (rat liver microsomes; [7]): 0.18 ± 0.03 nmol F^- /mg protein/30 min
percent decline from sevoflurane values (degree of inhibited metabolism) (rat liver microsomes; microsomes from isoniazid treated rats): 79%
defluorinated slower than sevoflurane (% less) (rat liver microsomes; microsomes from phenobarbital and isoniazid treated rats, over a wide range of anesthetic concentrations (figures 1 and 2)): 70-86%
percent decline from sevoflurane values (degree of inhibited metabolism) (rat liver microsomes; microsomes from phenobarbital treated rats): 84%
percent decline from sevoflurane values (degree of inhibited metabolism) (rat liver microsomes; microsomes from untreated rats): 68%
plasma fluoride liberated, % less than sevoflurane ([3]; isoniazid treated rats): 61%
plasma fluoride, % less than enflurane anesthetized animals ([3]; isoniazid treated rats): 80%
plasma fluoride liberated, % less than sevoflurane ([3]; phenobarbital treated animals): 66%
plasma fluoride, % less than enflurane anesthetized animals ([3]; phenobarbital treated rats): 45%
plasma fluoride liberated, % less than sevoflurane ([3]; untreated rats): 34%
plasma fluoride, % less than enflurane anesthetized animals ([3]; untreated rats): 40%
time until rats became anesthetized after introduction of anesthetic (Male Sprague-Dawley rats): 4 to 6 min
production of volatile degradation by-products [4]: virtually insignificant levels
degradation with soda lime, compared with sevoflurane ([5]; similar experiments to those run with sevoflurane): essentially the same

Structure (SMILES): FC(F)OC(F)(F)C(F)Cl (stereo not drawn) [enflurane]
anesthetic concentration-dependent inhibition of metabolism (rat liver microsomes; microsomes from isoniazid treated rats (figure 1)): anesthetic concentration-dependent inhibition of metabolism
time until rats became anesthetized after introduction of anesthetic (Male Sprague-Dawley rats): 4 to 6 min

defluorination by rat liver microsomes, nmol F^- /mg protein/30 min ± S.E. (rat liver microsomes; [7]): 1.18 ± 0.06 nmol F^- /mg protein/30 min
time after circuit start at which degradation products were detected ([4]; exothermic temperature, soda lime core 44°C to 47°C, initial concentration 2.7%, flow 1.5 liters per minute): about 1.5 hours
degradation products detected ([4]; soda lime canister in ice bath, core 22°C to 27°C, run up to eight hours): no degradation products were detected
production of volatile degradation by-products [4]: virtually insignificant levels
Structure (SMILES): FCOC(C(F)(F)F)C(F)(F)F [Sevoflurane, fluoromethyl-1,1,1,3,3,3-hexafluoro-2-propyl ether]
time until rats became anesthetized after introduction of anesthetic (Male Sprague-Dawley rats): 4 to 6 min
degradation products with soda lime ([5]; 22°C): some degradation products including "Compound A" were detected
degradation products with soda lime ([5]; 45°C): substantial degradation products, including "Compound A", were produced
lower flammability limit in oxygen [6]: about 11.8 volume percent

Structure (SMILES): [2H]C(Cl)(Cl)C(F)(F)OC [1,1-difluoro-2,2-dichloro-2-deuteroethyl methyl ether]
metabolism and defluorination relative to the undeuterated compound [2]: more readily metabolized into inorganic fluoride than the undeuterated compound
metabolism and defluorination relative to the undeuterated compound ([2]; listed as 1,1 difluoro-2-2-dichloro-2-deuteroethyl methyl ether): increase inorganic fluoride release

Structure (SMILES): COC(F)(C(F)(F)F)C(F)(F)F [CH3OCF(CF3)2]
non-anesthetic up to (concentration) ([1]; U.S. Patent 3,683,092): > 8 % by volume in oxygen

Structure (SMILES): [2H]C(F)(Cl)C(F)(F)OC(F)F (stereo not drawn) [1,1,2-trifluoro-2-chloro-2-deuteroethyl-difluoromethyl ether]
metabolism and defluorination relative to the undeuterated compound [2]: slower metabolism and thus slower defluorination

Structure (SMILES): [2H]C(F)(Br)C(F)(F)OC(F)F (stereo not drawn) [1,1,2-trifluroro-2-bromo-2-deuteroethyl difluoromethyl ether]
metabolism and defluorination relative to the undeuterated compound [2]: slower metabolism and thus slower defluorination

Structure (SMILES): FC(F)OC(F)(C(F)F)C(F)F [(CHF2)2CF-O-CHF2]
anesthetic properties ([1]; in vivo): weak anesthetic in which deep anesthesia is not obtained
electro-encephalographic and convulsant activity ([1]; in vivo): abnormal electro-encephalographic and convulsant activity is observed

From patent EP0682649B1, “DEUTERATED SEVOFLURANE AS AN INHALATIONAL ANESTHETIC” (UNIVERSITY OF IOWA RESEARCH FOUNDATION, priority 1993, dated 1994)
